Data from patent US11731946B2, “Broad spectrum antivirulence, anti-persistence compounds” (priority 2017, dated 2023).

Columns and labels:
[1] = Pharmacokinetics in mouse plasma and lung after single subcutaneous injection; assay type: in vivo, mice; conditions: for stability in vivo (serum concentration): 10 mg/kg subcutaneous, over 24 h
Experimental: FIGS. 1F-1G show pharmacokinetics measured in mouse plasma (FIG. 1F) and lung (FIG. 1G) following a single subcutaneous injection of Compounds 53, 54, or 72 at 10 mg/kg.

PA14 = assay: Mouse thigh infection model (PA14); assay type: in vivo, mice; conditions: 10 mg/kg SC; CFUs 24 h post-infection
Experimental: Mice were infected with 5×10^5 and 5×10^6 PA14 cells for the thigh and lung infection model respectively. FIGS. 5A-5C: Thigh model: treatment was initiated […] and repeated at 4, 8, 12 and 18 hours. FIG. 5A: monotherapy with Compound 72, 10 mg/kg (P<0.05 Mann Whitney test); FIG. 5B-5C. Combinatorial: Compound 72 (10 mg/kg) plus Ciprofloxacin 1 mg/kg (subtherapeutic dose) (FIG. 5B: P<0.05; Figure C: P>0.05; Mann Whitney test). CFUs were assessed 24 h post-infection in the thigh (FIG. 5A), liver (FIG. 5B) and spleen (FIG. 5C). Compound 72 was administered subcutaneously and ciprofloxacin intraperitoneally (IP). […] Mice were infected with 5×10^6 PA14 cells lung infection model. Compound 54 (10 mg/kg) plus ciprofloxacin 1 mg/kg treatment (subtherapeutic dose) was initiated at 2 h post-infection and repeated at 6, 12, and 18 h post-infection. CFUs were assessed 24 h post-infection in the lung. Compound 54 was administered subcutaneously and ciprofloxacin intraperitoneally (IP).
Thigh infection studies were performed using Compounds 54 and 72.

SMILES: N#Cc1ccc(NC(=O)CC(=O)Nc2ccc(Br)cc2)cc1 [Compound 54]
- stability in vivo (serum concentration) [1]: stable in vivo
- stability in vivo (serum concentration) ([1]; listed as D42): highly stable in vivo
- pharmacokinetics (in words) ([1]; mouse, in vivo): promising pharmacokinetics
- bacterial CFUs at the site of infection (PA14): reduced bacterial CFUs
